Eight compounds from US8507440B2, “Protein kinase C peptides for use in withdrawal” (The Board of Trustees of the Leland Stanford Junior …, priority 2002, dated 2013) can be followed below.

Ends that are not written are not given here.

Experiment [1] relates to N-methyl-D-aspartate (NMDA) receptor currents. In words: alcohol withdrawal hyperresponsiveness of NMDA-evoked currents in lumbar spinal cord slice motor neurons. The format is cell-based, rat. The source says:
Spinal cords were taken from young rats, and slices of these cords were made and placed in artificial cerebrospinal fluid for patch clamp electrophysiological analysis, to characterize the ability of γPKC peptides to mediate alcohol withdrawal hyperresponsiveness of N-methyl-D-aspartate (NMDA) receptor currents. FIG. 7A is a schematic diagram of the technique, where a lumbar spinal cord slice 10 is shown. The placement of a recording electrode 12 and a pipette 14 for application of NMDA relative to a motor neuron 16 is illustrated.
Sprague-Dawley rats at postnatal day 7-10 were anesthetized with halothane, decapitated, and the spinal cords were quickly removed. Slices […] thick were sectioned from the lumbar region. Whole cell voltage clamp recordings were made from visually-identified motor neurons using infrared video microscopy, a 60× water immersion lens, and a MultiClamp 700A patch clamp amplifier. Cells were held at a holding potential of −60 mV in artificial cerebrospinal fluid (ACSF) containing bicuculline methiodide ([…]), strychnine ([…]), and tetrodotoxin ([…]). Postsynaptic currents were evoked by direct pressure application of 2 mM N-methyl-D-aspartate (NMDA) from a pipette positioned near the recorded cell at 1-2 min intervals, as illustrated in FIG. 7A. The area of evoked currents during and following 100 mM ethanol (EtOH) application was measured and normalized to the average baseline current area during the 10 minutes preceding EtOH application. Data are expressed as mean +/−SEM: Statistical significance was determined by one-way ANOVA followed by Dunn's or Tukey's multiple comparison test with significance set at p<0.05.

A further experiment concerns isolated spinal cords. Description: slow ventral root potential (sVRP) of isolated spinal cord, naloxone-precipitated morphine withdrawal hyperresponsiveness. The format is cell-based, rat. Particulars: for sVRP area 30 minutes after naloxone / block of naloxone-precipitated withdrawal hyperresponsiveness of sVRP: morphine 200 nM then naloxone 200 nM, GF109203X 1.2 μM, Go6976 1 μM, εV1-2 2 nM; for block of naloxone-precipitated withdrawal hyperresponsiveness of sVRP: γV5-3 4 nM, Tat 2-4 nM. The text has this:
The slow ventral root potential (sVRP) is an electrophysiolgical measurement of nociceptive-related response in the spinal cord lasting approximately 40 seconds (Yanagisawa et al., Eur. J. Pharmacol., 106:231-239 (1984); Akagi H. et al., British J. Pharmacol., 84:663-673 (1985); Otsuka M. et al., J. Physiol., 395:255-270 (1988)). It is evoked by stimulation of a lumbar dorsal root at an intensity sufficient to activate small diameter afferents that transmit nociceptive (painful) stimuli from the periphery to the spinal cord (Lozier A. P. et al., J. Neurophysiol., 74:1001-1009 (1995)). […] Thus, the sVRP is related to pain, and its exaggeration following naloxone is a manifestation of withdrawal which translates to an increase in pain sensation in vivo.
Spinal cords from 4-7 day old rats (Charles River Laboratories) were removed and arranged for electrophysiological recording of the slow ventral root potentials (sVRP) (Woodley S. J., et al., Brain Res., 559:17-21 (1991). Briefly, pups were decapitated under halothane anesthesia and the spinal cord removed to an oxygenated artificial cerebrospinal fluid solution. A suction stimulating electrode was placed on a lumbar dorsal root and a suction recording electrode on the corresponding ipsilateral ventral root. Square wave stimuli 0.2 ms in duration were administered at a constant frequency of 1/50 seconds throughout the experiment. Test agents were applied and the responses were recorded, digitized, and area under the curve measured.
After a baseline reading of the sVRP, morphine (200 nM) was applied to the isolated spinal cords. The sVRP was again recorded to characterize the response to morphine. Naloxone (200 nM) was then applied and the sVRPs recorded.
FIGS. 2A-2D show the results after application of non-specific PKC antagonist, GF109203X (1.2 μM), and of an inhibitor specific to Ca++-dependent PKC isoforms, Go6976 (1 μM).
FIGS. 3A-3B show the results after application of the εPCK antagonist (εV1-2; SEQ ID NO:1, 2 nM), conjugated to a peptide carrier (Tat; SEQ ID NO:3) and the Tat peptide alone (2 nM; SEQ ID NO:3). FIGS. 3C-3D show the results after application of γPKC (γV5-3; SEQ ID NO:2, 4 nM) conjugated to a peptide carrier (Tat; SEQ ID NO:3) and of the Tat peptide alone (4 nm; SEQ ID NO:3).

A further experiment relates to postnatal day 7 rats. Description: naloxone-precipitated morphine withdrawal, mechanical threshold and thermal paw withdrawal latency in vivo. The settings on record: for block of naloxone-precipitated morphine withdrawal allodynia and hyperalgesia: 10 μM in 5 μl intrathecally prior to morphine 1 mg/kg s.c., naloxone 0.25 mg/kg 30 min after morphine. Also noted: species or system rat. Here is the method: In vivo studies on opiate withdrawal allodynia and hyperalgesia were conducted using postnatal day 7 rats. As described in Example 2, postnatal day 7 rats were given morphine subcutaneously followed 30 minutes later by naloxone or saline. Mechanical threshold using von Frey filaments to produce the flexion withdrawal response of the hind paw and thermal stimulation to measure the paw withdrawal latency were measured as described in Example 2.
FIG. 5A illustrates a treatment protocol where rat pups were given a PKC antagonist intrathecally (e.g., directly into the cerebrospinal fluid surrounding the spinal cord) prior to subcutaneous morphine delivery. Thirty minutes after morphine delivery, naloxone was administered, followed by mechanical allodynia and thermal hyperalgesia testing (as described in Example 2).
Postnatal day 7 Sprague-Dawley rats (Charles River Laboratories) of both sexes were used. For all behavioural experiments rats were maintained at nesting temperature with overhead heatlamps.
To measure mechanical thresholds, rats were placed on an elevated wire mesh (2 mm openings). Von Frey hairs (Stoelting Co., WoodDale, Ill., USA) were used to elicit a cutaneous flexion withdrawal response as described by Fitzgerald et al. (Fitzgerald M., et al., PAIN […] INFANTS, CHILDREN AND ADOLESCENTS; Schetchter and Yaster, Eds., pp 11-32, Williams and Williams (Baltimore, Md.) (1993). Von Frey hairs of increasing intensity were applied three times to the plantar surface of the left hind paw until a paw withdrawal was elicited. The lowest intensity Von Frey hair required to produce a withdrawal reflex was recorded as the response threshold to a low-intensity mechanical stimulus.
Thermal paw withdrawal latencies were measured using the Ugo Basile Plantar Testing apparatus (Stoelting Co., WoodDale, Ill., USA). Briefly, postnatal day 7 rats were placed under inverted Plexiglas enclosures and the plantar surface of the left hindpaw was heated from below with the IR intensity of the lamp set at 30. Two baseline thermal response latency measures were collected prior to morphine administration with a cut-off of 20 seconds enlisted to prevent tissue damage.
Postnatal day 7 rats were administered 1 mg/kg morphine sulfate (Sigma) subcutaneously in 50 μl saline. Mechanical thresholds were measured 15 minutes later to establish analgesia. Rats were returned to their dam. At 30 or 120 minutes post morphine, rats were administered 0.25 mg/kg naloxone (Sigma) subcutaneously in 50 μl saline. Mechanical thresholds and thermal paw withdrawal latencies were measured in 10 minute intervals. Tat conjugated peptide inhibitors specific to the ε (εV1-2; SEQ ID NO:1, 10 μM) and γ ([…]; SEQ ID NO:2, 10 μM) isoforms of PKC, Tat carrier (10 μM), or saline were administered in 5 μl volumes intrathecally via direct lumbar puncture using a sterile 29 gauge 3/10 cc insulin syringe in rats lightly anesthetized with halothane. To allow for complete recovery from anesthetic, animals were administered peptides or control solutions 30 minutes prior to naloxone.
An unpaired T-test was used to determine the significance of post-naloxone measures from baseline measures. Significance between treatment groups for PKC inhibitor studies both in vivo and in vitro was determined by one way analysis of variance (ANOVA) followed by a post-hoc Bonferroni analysis. P-values<0.05 were considered significant. All statistical analysis was done with GraphPad Prism version 3.02.

Experiment [2] concerns 7 day old and 21 day old rats. In words: ethanol withdrawal mechanical allodynia testing (von Frey threshold withdrawal force). The format is in vivo, rat.
The test system of experiment [3] is 7 day old and 21 day old rats. In words: ethanol withdrawal thermal hyperalgesia testing (paw withdrawal latency). It counts as in vivo, rat. The settings on record: 7 day old rats; intrathecally 4 hours after 4 g/kg 15% EtOH.

Regarding `O=C(O)CN(CC(=O)O)c1ccccc1OCCOc1ccccc1N(CC(=O)O)CC(=O)O` [BAPTA, 1,2-bis(2-aminophenoxy)ethane-N,N,N′,N′-tetraacetic acid, reference compound], the “ethanol withdrawal hyperresponsiveness of NMDA-evoked currents with calcium chelator” value in experiment [1] (30 mM in recording pipette) is recorded as “no ethanol-withdrawal hyperresponsiveness”.
With `CN(C)CCCn1cc(C2=C(c3c[nH]c4ccccc34)C(=O)NC2=O)c2ccccc21` [GF109203X], in the experiment on isolated spinal cords, the “sVRP area 30 minutes after naloxone” value is on record as 87 % of control and the “block of naloxone-precipitated withdrawal hyperresponsiveness of sVRP” value (from here on “block … of sVRP”) is given as “blocked the withdrawal hyperresponsivess”.
The matching figures for `Cn1c2ccccc2c2c3c(c4c5ccccc5n(CCC#N)c4c21)CNC3=O` [Go6976]: 127.4 % of control and “did not block withdrawal”.
For the compound `COc1ccc2c(c[n+](C)c3c4cc5c(cc4ccc23)OCO5)c1OC` [chelerythrine], in the experiment on isolated spinal cords, the “sVRP area 30 minutes after naloxone” value is 100.1 % of control and the “block … of sVRP” value is reported as “did block morphine withdrawal”. Besides, in the experiment with isolated spinal cords (morphine-exposed spinal cords), the “effect on the response to morphine” value was “did not alter the response to morphine”.
As for `CN1CC[C@]23c4c5ccc(O)c4O[C@H]2[C@@H](O)C=C[C@H]3[C@H]1C5` [morphine], the “effect of morphine on sVRP” value with isolated spinal cords (morphine 200 nM) is recorded as “depressed”. Further, the “paw withdrawal threshold and latency after morphine” value in the experiment on postnatal day 7 rats (morphine 1 mg/kg s.c., then saline) is “exhibited profound analgesia”.
Turning to `C=CCN1CC[C@]23c4c5ccc(O)c4O[C@H]2C(=O)CC[C@@]3(O)[C@H]1C5` [naloxone], the “sVRP area 30 minutes after naloxone” value with isolated spinal cords was 140.9 % of control. Moreover, the “mechanical threshold and paw withdrawal latency, naloxone after morphine” value in the experiment with postnatal day 7 rats (naloxone 0.25 mg/kg s.c. following 30 minutes of morphine exposure) is “precipitated mechanical allodynia and thermal hyperalgesia”. In addition, in the experiment with postnatal day 7 rats (no morphine), the “mechanical threshold and paw withdrawal latency, naloxone alone” value was “did not alter paw withdrawal thresholds to mechanical stimulation or paw withdrawal latency to thermal stimulation”.
For “Tat: Tat-derived carrier peptide (Tat 47-57), control for the conjugated inhibitors”, in the experiment on isolated spinal cords, the “block … of sVRP” value is reported as “did not block the withdrawal response”. In the experiment with postnatal day 7 rats, the “block of naloxone-precipitated morphine withdrawal allodynia and hyperalgesia” value was “did not prevent allodynia and hyperalgesia”. For the same compound, the “effect on ethanol withdrawal hyperresponsiveness of NMDA-evoked currents” value in experiment [1] (10 nM Tat carrier alone) is reported as “does not prevent the symptom”.
Regarding “εV1-2: εPKC antagonist peptide, SEQ ID NO:1, isozyme-specific translocation inhibitor, used Tat-conjugated (EAVSLKPT; also: Tat peptide conjugate; listed as Homo sapiens)”, the “effect on sVRP of inhibitor alone” value in the experiment with isolated spinal cords (absence of morphine) is “did not alter the sVRP”. Moreover, in the experiment on isolated spinal cords, the “sVRP area 30 minutes after naloxone” value is 102 % of control and the “block … of sVRP” value was “blocked withdrawal hyperresponsiveness”. For the same compound, the “block of naloxone-precipitated morphine withdrawal allodynia and hyperalgesia” value in the experiment on postnatal day 7 rats is “effective to block naloxone-precipitated morphine withdrawal allodyina and hyperalgesia”. Moreover, in experiment [2] (7 day old rats, 5 μL of 20 μM intrathecally 5 hours after 4 g/kg 15% EtOH i.p., 6 and 7 hour post-EtOH, versus Tat carrier), the “mechanical allodynia, threshold withdrawal force” value is listed as “attenuated mechanical allodynia”. Also, in experiment [2] (21 day old rats, 10 μL of 20 μM intrathecally 4 hours after 4 g/kg 15% EtOH i.p.), the “mechanical allodynia, threshold withdrawal response” value is “slightly attenuated the response at 6 hours and 8 hours post ethanol injection”. The “thermal hyperalgesia, paw withdrawal latency” value in experiment [3] is on record as “completely prevented thermal hyperalgesia”.
